Measured values reported in publication PMC12948223, “HSP70 Interactome‐Mediated Proteolysis Targeting Chimera (HSP70‐PROTAC) for Ferroptosis‐Driven Cancer Treatment” (Advanced Science, 2025).

What was measured:
HT1080 xenograft tumor = HT1080 xenograft tumor mouse model, antitumor efficacy and safety; type: in vivo; details: for TGI (tumor growth inhibition): 17 days
Experimental: Motivated by the aforementioned in vitro findings, we subsequently sought to evaluate the in vivo antitumor efficacy of GDAz‐3 using an HT1080 xenograft tumor mouse model. The tumor‐bearing mice were randomly divided into six groups, minimizing weight and tumor size differences among the groups (n = 6 in each group). The treatment group mice were administered once daily by intraperitoneal injection (IP) with GDAz‐3 at a dosage of 30 or 60 mg kg^−1, while the control group animals were treated with the corresponding solvent, ML162, and apoptozole at a dosage of 30 mg kg^−1. Additionally, we set up a drug combination group to confirm the superiority of GDAz‐3. After treatment for 17 days, animals were humanely euthanized and the tumors were excised (Figure 7B). […] The advantage of the safety of GDAz‐3 was also determined by the hematoxylin and eosin (H&E) staining. […] In general, compared with the single inhibitor or their combination, the in vivo antitumor study confirmed the efficacy and safety of GDAz‐3.
The experimental procedures of the animal experiments were permitted by the Hangzhou Institute of Medicine (HIM), Chinese Academy of Sciences (AP2024‐07‐0010). Male BALB/c nude mice (6 weeks old) were housed under pathogen‐free conditions, maintained at a constant room temperature, and fed standard rodent chow and water. An HT1080 fibrosarcoma xenograft model in nude mice was established through subcutaneous transplantation. When the tumors emerged, the mice were randomly divided into six groups with six mice in each group: GDAz‐3‐treated at 30 or 60 mg kg^−1 group and control groups, including the vehicle group, and each of the two inhibitor‐treated groups (ML162 and apoptozole) at 30 mg kg^−1, and their combinations. The mice were intraperitoneally (IP) injected daily according to their body weight. Body weight and tumor size were measured every other day, and the tumor volume and body weight were recorded every other day after drug treatment. After treatment, the animals were euthanized by cervical dislocation, and the tumor bulks were peeled off and weighed. The organ tissues (tumor, heart, liver, spleen, lung, and kidney) were harvested and fixed with 4% paraformaldehyde for hematoxylin‐eosin (H&E) and immunohistochemistry (IHC) staining. In addition, the expression of GPX4 in tumor samples was analyzed in vehicle‐ and GDAz‐3‐treated groups by western blot assay.

human Hsc70 = biological target: T1, human Hsc70 (Homo sapiens, UniProt P11142); test: SPR binding to immobilized Hsc70 (binary); details: immobilized Hsc70, 25 °C
T1 construct: purchased MedChemExpress HY-P73915A
Experimental: The SPR data was generated by our Shared Instrumentation Core Facility at the Hangzhou Institute of Medicine (HIM), Chinese Academy of Sciences. The in vitro binding affinity of compound GDAz‐3 to recombinant proteins (Hsc70, MedChemExpress, #HY‐P73915A; GPX4, Cayman, Item No. 26 906) was evaluated using a Biacore 8K system (Cytiva (GE)) with the method of LMW multi‐cycle kinetics/affinity. Pipelines and chips were flushed with PBS (pH 7.4) running buffer, and then, human Hsc70 was immobilized on a CM5 sensor chip. Analysis was performed at a flow rate of 30 µL min^−1 at 25 °C with the injection of incremental concentrations of compounds dissolved in buffer solution (the final concentration of DMSO was 5%). For ternary‐complex binding measurements, Hsc70 was immobilized on a CM5 sensor chip, and compound GDAz‐3 at a concentration of 1 µM was preincubated with GPX4. The binding and dissociation durations were recorded as response unit values for 120 and 120 s in succession, respectively. Finally, the data were analyzed by Biacore evaluation software with the method of LMW multi‐cycle kinetics/affinity.

GPX4 = biological target: T2, GPX4 (Homo sapiens, UniProt P36969); test: In-cell western (ICW) GPX4 degradation in HT1080 cells; type: cell-based; design: determine the changes in the endogenous levels of GPX4 by western blot assay; endogenous in cells; host or cells: HT1080 fibrosarcoma cells, including siRNA-knockdown derivatives; details: 24 h
T2 sequence (P36969 1-170 isoform P36969-2): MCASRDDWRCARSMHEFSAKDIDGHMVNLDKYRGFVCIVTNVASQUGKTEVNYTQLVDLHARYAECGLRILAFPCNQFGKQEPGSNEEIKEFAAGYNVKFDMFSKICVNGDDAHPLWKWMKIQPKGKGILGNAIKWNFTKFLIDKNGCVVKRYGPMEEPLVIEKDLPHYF
Experimental: To further confirm this degradation efficacy, an in‐cell western (ICW) assay, a quantitative immunofluorescence cell‐based technique, was performed to quantify the relative expression level of GPX4 after treatment with GDAz‐3 for 24 h. […] Given the promising GPX4 degradation activity of GDAz‐3, we extended our evaluation to additional ferroptosis‐sensitive cell lines, including triple‐negative breast cancer cells (MDA‐MB‐231) and melanoma cells (mouse B16‐F10). […] Based on the observation that GDAz‐3 was particularly effective in HT1080 cells, we selected this cell line for further degradation mechanism and ferroptosis pharmacodynamics studies.
HT1080 cells were seeded into 96‐well plates at a density of 1 × 10⁴ cells per well and cultured overnight. After 24‐h treatment with the drugs, the culture medium was removed, and 150 µL of 4% paraformaldehyde was added to each well to fix the cells at 4 °C for 20 min. The paraformaldehyde was removed, and 150 µL of 0.2% Triton X‐100 was added to each well. The cells were permeabilized by shaking at room temperature for 30 min. After removing the Triton X‐100, 50 µL of 1% BSA buffer was added to each well, and shaken at room temperature for 90 min. […] The PBS was discarded, and the plates were read using a Typhoon biomolecular imager (Cytiva, GPX4: wavelength 680 nm; GAPDH: 800 nm).

T1 sequence (P11142 whole entry): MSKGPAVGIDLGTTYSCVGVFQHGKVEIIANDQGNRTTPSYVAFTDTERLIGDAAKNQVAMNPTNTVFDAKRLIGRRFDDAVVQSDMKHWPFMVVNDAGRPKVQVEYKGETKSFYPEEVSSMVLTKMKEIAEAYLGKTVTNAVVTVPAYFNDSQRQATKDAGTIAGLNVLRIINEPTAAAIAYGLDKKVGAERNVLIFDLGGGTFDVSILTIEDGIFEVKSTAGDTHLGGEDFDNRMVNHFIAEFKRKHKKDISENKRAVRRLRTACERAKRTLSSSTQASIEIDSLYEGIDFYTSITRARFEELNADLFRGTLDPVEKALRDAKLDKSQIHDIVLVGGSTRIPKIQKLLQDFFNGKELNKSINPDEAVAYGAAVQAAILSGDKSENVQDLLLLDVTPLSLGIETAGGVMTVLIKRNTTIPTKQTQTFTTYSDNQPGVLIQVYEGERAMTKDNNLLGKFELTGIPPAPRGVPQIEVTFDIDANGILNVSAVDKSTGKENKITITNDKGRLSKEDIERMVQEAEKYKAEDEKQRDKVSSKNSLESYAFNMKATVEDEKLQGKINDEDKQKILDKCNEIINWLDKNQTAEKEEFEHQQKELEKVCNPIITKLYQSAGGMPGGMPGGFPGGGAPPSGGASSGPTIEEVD

## COc1ccc(-c2nc(-c3cc(C(F)(F)F)cc(C(F)(F)F)c3)n(Cc3ccc(C(=O)NCCOCCOCCOCCn4cc(COc5ccc(N(C(=O)CCl)C(C(=O)NCCc6ccccc6)c6cccs6)cc5Cl)nn4)cc3)c2-c2ccc(OC)cc2)cc1 (stereo not drawn) [GDAz-3, 4-((2-(3,5-bis(trifluoromethyl)phenyl)-4,5-bis(4-methoxyphenyl)-1H-imidazol-1-yl)methyl)-N-(2-(2-(2-(2-(4-((2-chloro-4-(2-chloro-N-(2-oxo-2-(phenethylamino)-1-(thiophen-2-yl)ethyl)acetamido)phenoxy)methyl)-1H-1,2,3-triazol-1-yl)ethoxy)ethoxy)ethoxy)ethyl)benzamide]
HT1080 xenograft tumor; 30 mg/kg IP once daily
  TGI (tumor growth inhibition): 52%
HT1080 xenograft tumor; 60 mg/kg IP once daily
  TGI (tumor growth inhibition): 67%
HT1080 xenograft tumor; 30 or 60 mg/kg IP once daily
  Body weight of the mice: did not obviously reduce the body weight
HT1080 xenograft tumor; GDAz-3-treated group
  H&E staining of major organs (heart, liver, spleen, lung, kidney): did not observe significant toxic changes in the major organs
Human Hsc70
  Kd: 0.018 µM
GPX4
  DC50: 0.25 µM
